Measured values published in US20070212772A1, “RHIZOBIUM LEGUMINOSARUM STRAIN AND USE THEREOF AS PLANT INOCULANT” (priority 2005, published 2007).

System: pea (cultivar 'Mozart')
Test: Growth chamber pot test of Rhizobium strains on pea, biomass and nitrogen in plant tissue (Experiment 1)
Type: in vivo
Parameters: Total Nitrogen per Shoot: unit not given here
Details: 35 days; for % Nitrogen: shoot tissue
Protocol: • 1) To evaluate eight previously untested Rhizobium strains for their ability to enhance biomass accumulation and nitrogen in legume plant tissue. These eight strains are evaluated against known strains PBI #108 and PBI#101. Note that PBI #108 is a commercial strain of Rhizobium leguminosarum that can be obtained from the Australian Legume Inoculants Research Unit of the New South Wales Agriculture Horticultural Research & Advisory Station, Locked Bag 26, Gosford, New South Wales, 2250, Australia under the deposit number ALIRU SU303. PBI #101 is a strain available from the USDA under deposit number 2449. Experimental Design: Factorial Design: 2 Soil Types (Aberdeen soil, Kyle soil) • 1 Pea seed Cultivar (‘Mozart’) • 12 Seed Treatments (Uninoculated, Nitrogen, Eight untested strains, PBI #108, PBI #101) • Randomized Block. Strain Selection Criteria: • 1) Collected field soil was sifted through a ¼ inch screen to remove any lumps of soil, roots, other plant material, sticks, etc. The soil was then spread out to dry for a period of one week and then placed into plastic bins until needed. • 2) Pots (4-½ inch×5 inch deep) were then labeled according to treatment. A sterile square pieces of spun polyester (black landscape fabric) was then placed into the bottom of each of the pots to prevent the sand/soil mixture from draining out through the pots drainage holes. • 3) A 50% mixture of Kyle soil/silica sand or 50% Aberdeen soil/silica sand (Unimum Industries—industrial quartz) was used as a potting media. • 4) After filling each pot with the sand/soil mixture each pot was placed into a large plastic Ziploc™ bag. • 5) One day before seeding each pot was watered with 150 ml of tap water (non-sterile) and the bags were sealed until seeded. • 6) On the day of seeding 5.5 kg of pea seed—cultivar ‘Mozart’—was divided up into eleven 500 gram amounts and surfaced sterilized via the following method: • a) Place 500 grams of seed into a 2 liter glass Erlenmeyer flask • b) Cover the seeds with 95% Ethanol, let stand 60 seconds then drain. • c) Add a fresh preparation of a 50% bleach solution (1000 mls into 1000 mls water-2.6% NaOCl active), add seed, shake and let stand 5 minutes, then drain. • d) Rinse with 4 changes of R.O. water (non-sterile) followed by one rinse with sterile R.O. water. • 7) After surface sterilization each 500 g amount of seed was spread into an aluminum foil pan lined with sterile paper towel and blotted dry and then transferred into clean large Ziploc™ bags. • 8) After inoculation uninoculated and inoculated pea seeds were planted. Five pea seeds were placed into each pot 2 inches below the surface. Spoons and forceps used to plant the seed were washed and dried thoroughly between treatments. 9) The bags were then sealed and placed into a growth chamber that was set for the following conditions: [table] • 10) Each pot was placed into a plastic bin in a randomized block design (two bins contained one pot of each of the 24 treatments). A total of 20 bins were used to hold all of the treatments. Three times a week (Monday's, Wednesdays and Fridays) each plastic bin was moved one bin position to the right. This was done to ensure differences in light intensity/quality or temperature were consistent for each of the treatments inside the growth chamber. • 11) Bags were kept fully closed until 50% emergence was observed, then fully opened. • 12) Plants were checked daily and watered as required using tap water. • 13) After 35 days plants were photographed (digital image file) and then harvested.

Nitrogen was tested, and the “Shoot dry weights (mean)” value (Aberdeen soil) was 0.45 grams per shoot, the “Total Nitrogen per Shoot” value (Aberdeen soil) was 0.0144 and the “% Nitrogen” value (Aberdeen soil) was 3.18%. The “Shoot dry weights (mean)” value (Kyle soil) was 0.46 grams per shoot, the “Total Nitrogen per Shoot” value (Kyle soil) was 0.0131 and the “Visual Assessment of Plant Color, Ranking Based on Color” value (Kyle soil, ranked from darkest green (1) to yellow/green (12)) was 1. For the same substance, the “% Nitrogen” value (Kyle soil) was 2.80%.
